Data on four compounds can be found in US20040157800A1, “Ascorbyl derivatives of carnitines and cosmetic compositions containing same” (priority 2001, published 2004).

This data set in a line: Weight increase, appearance and flowability after exposure to humidity (hygroscopicity). The format is physicochemical. The following applies: for Appearance / Weight increase (%): 60% relative humidity at 25° C. for 42 hours; for Hygroscopicity of the solid (in words): isolated crystalline solid; for Flowability: time needed by a 10-gram sample to pass through a funnel of 4 mm diameter, after 60% relative humidity at 25° C. for 42 hours. As to the method:
In the following Table 1, the weight increase (%) and the flowability of the compounds of the invention are compared with those of L-carnitine and acetyl L-carnitine inner salts following exposure of the compounds to 60% relative humidity at 25° C. for 42 hours. Reference method:
Pharmaeuropa November 1996.

Counter-ions that a name gives are not always drawn.

On to `C[N+](C)(C)C[C@H](O)CC(=O)[O-]` [L-carnitine Inner salt, L-carnitine inner salt, reference compound], for which the Appearance entry is recorded as “deliquescent” and the “Weight increase (%)” value came to 19%.
For `CC(=O)O[C@H](CC(=O)[O-])C[N+](C)(C)C` [acetyl L-carnitine Inner salt, acetyl L-carnitine inner salt, reference compound], the Appearance entry is “deliquescent” and the “Weight increase (%)” value is 20%.
In the case of “Acetyl L-Carnitine Magnesium Ascorbyl Phosphate [Example 2]”, the Appearance entry is given as “no variation”, the “Weight increase (%)” value is given as 0.14%, the “Hygroscopicity of the solid (in words)” value was “non-hygroscopic” and the Flowability is 6 s.
As for “L-Carnitine Magnesium Ascorbyl Phosphate [Example 1]”, the Appearance entry is recorded as “no variation”, the “Weight increase (%)” value came out at 0.12%, the “Hygroscopicity of the solid (in words)” value is “non-hygroscopic” and the Flowability came out at 5 s.
